Reference: patent US20150056272A1, “Synergistic Antimicrobial Preparations Containing Chlorite and Hydrogen Peroxide” (S.K. Pharmaceuticals, Inc., priority 1998, published 2015)

Tested on: candida albicans
Experiment: Candida albicans challenge (log reduction)
Format: cell-based
Settings: components applied separately at the same concentrations (400 ppm chlorite; 100 ppm hydrogen peroxide)

Row | Molecule | effect on candida albicans activity
1 | chlorite | ineffective
2 | OO [hydrogen peroxide] | ineffective
